From article PMC5433425 (PeerJ, 2017)
Where “and” joins values, the source holds several entries; their conditions need not be identical. Equal values may be shown once.

Tests used:
E. coli AG100tet [1] = assay: microbe, parasite or virus in culture; assay type: cell-based, Escherichia coli; details: AG100tet
Method: (§1) The assays were performed in triplicate and the MIC value was given as result of at least two concordant values.

E. coli AG100 [2] = assay: Membrane permeability assay (Live/Dead BacLight); details: for BacLight Live/Dead fluorescence 485/20,528/20 / BacLight Live/Dead fluorescence 485/20,590/35: raw well reading
E. coli AG100 [3] = assay: EtBr efflux by real-time fluorometry; details: for EtBr fluorescence (Channel Cycling A.530/585hp): 80 µM, + glucose
Method: Control tubes with only cells and cells with and without 0.4% glucose were included. The fluorescence was measured in a Rotor-Gene 3000 and the data was acquired every 30 s for 30 min at 37 °C. The efflux activity was quantified by comparing the fluorescence data obtained under conditions that promote efflux (presence of glucose and absence of efflux inhibitor) with the data from the control in which the bacteria are under conditions of no efflux (presence of an inhibitor and no energy source).

E. coli AG100tet [4] = assay: EtBr accumulation by real-time fluorometry; details: EtBr 2 µg/ml + inhibitor 80 µM
E. coli AG100 [5] = assay: Checkerboard synergy assay (MIC of antibiotics/EtBr with efflux inhibitor); assay type: cell-based, Escherichia coli; details: AG100
Method: as §1

[6] = system: E. coli AG100A (AcrAB pump-deficient); assay: MIC, broth microdilution; assay type: cell-based, Escherichia coli
E. coli AG100 [7] = assay: Membrane potential assay (BacLight, DiOC2(3))
E. coli AG100A = assay: microbe, parasite or virus in culture; assay type: cell-based, Escherichia coli
Method: The minimum inhibitory concentrations (MICs) were determined using the broth microdilution method according to the CLSI guidelines ([Clinical and Laboratory Standards Institute, 2014]). […] Two-fold serial dilutions of the compounds were made to achieve the following concentrations: 320 µM–40 µM. The MICs were determined as the lowest concentration at which no visible growth was observed after 18 h of incubation at 37 °C. The assays were performed in triplicate and the MIC value was given as result of at least two concordant values.

[8] = system: E. coli AG100tet (AcrAB overexpressing); assay: MIC, broth microdilution; assay type: cell-based, Escherichia coli; details: E. coli AG100tet

## CCCOc1ccc(-c2cc(OCCN3CCNCC3)c3ccccc3n2)cc1 [PQQ4R, 4-(2-(piperazin-1-yl)ethoxy)-2-(4-propoxyphenyl) quinolone]
E. coli AG100tet [1]; inhibitor 40 μM
  MIC of EtBr in presence of the efflux inhibitor: 512 µg/mL
  MIC of OFX in presence of the efflux inhibitor: 0.5 µg/mL
  MIC of OXA in presence of the efflux inhibitor: >2,048 μg/ml
  MIC of TET in presence of the efflux inhibitor: 16 µg/mL
E. coli AG100tet [1]; inhibitor 80 μM
  MIC of EtBr in presence of the efflux inhibitor: 512 µg/mL
  MIC of OFX in presence of the efflux inhibitor: 0.25 µg/mL
  MIC of OXA in presence of the efflux inhibitor: 2,048 μg/ml
  MIC of TET in presence of the efflux inhibitor: 16 µg/mL
E. coli AG100tet [1]; inhibitor 160 μM
  MIC of EtBr in presence of the efflux inhibitor: 512 µg/mL
  MIC of OFX in presence of the efflux inhibitor: 0.25 µg/mL
  MIC of OXA in presence of the efflux inhibitor: 2,048 μg/ml
  MIC of TET in presence of the efflux inhibitor: 16 µg/mL
E. coli AG100tet [1]; inhibitor 80 and 160 µM
  decrease in OFX MIC: 4 fold
  decrease in TET MIC: 4 fold
E. coli AG100 [2]; 80 uM
  BacLight Live/Dead fluorescence 485/20,528/20: 153 and 118
  BacLight Live/Dead fluorescence 485/20,590/35: 38 and 30
E. coli AG100 [2]; 160 uM
  BacLight Live/Dead fluorescence 485/20,528/20: 278 and 253
  BacLight Live/Dead fluorescence 485/20,590/35: 85 and 82
E. coli AG100 [2]; 320 uM
  BacLight Live/Dead fluorescence 485/20,528/20: 277 and 252
  BacLight Live/Dead fluorescence 485/20,590/35: 87 and 78
E. coli AG100 [2]; 640 uM
  BacLight Live/Dead fluorescence 485/20,528/20: 160 and 178
  BacLight Live/Dead fluorescence 485/20,590/35: 79 and 82
E. coli AG100 [2]; AG100, 80 µM
  membrane permeability increase / membrane permeation: 4%
E. coli AG100 [2]; AG100, 80 µM (≈1/8 MIC), 1 h
  effect on cell membrane integrity: did not alter
E. coli AG100 [2]; AG100, 160 μM (1/4 MIC)
  membrane permeation: 22%
E. coli AG100 [2]; AG100, 320 μM (1/2 MIC)
  membrane permeation: 28%
E. coli AG100 [2]; AG100, 640 μM (MIC)
  membrane permeation: 50%
E. coli AG100 [2]; AG100, half MIC, 1 h
  reduction of membrane integrity: 28%
E. coli AG100 [3]; AG100, AG100A and AG100tet (Fig. 2), 80 μM (20 μM for AG100A), glucose, 37 °C
  inhibition of EtBr efflux: inhibited
E. coli AG100 [3]; cycle 1
  EtBr fluorescence (Channel Cycling A.530/585hp): 14.1835
E. coli AG100 [3]; cycle 2
  EtBr fluorescence (Channel Cycling A.530/585hp): 12.9442
E. coli AG100 [3]; cycle 3
  EtBr fluorescence (Channel Cycling A.530/585hp): 12.1458
E. coli AG100 [3]; cycle 9
  EtBr fluorescence (Channel Cycling A.530/585hp): 9.004
E. coli AG100 [3]; cycle 10
  EtBr fluorescence (Channel Cycling A.530/585hp): 8.5432
E. coli AG100 [3]; cycle 11
  EtBr fluorescence (Channel Cycling A.530/585hp): 8.357
E. coli AG100 [3]; cycle 12
  EtBr fluorescence (Channel Cycling A.530/585hp): 8.087
E. coli AG100 [3]; cycle 13
  EtBr fluorescence (Channel Cycling A.530/585hp): 7.737
E. coli AG100 [3]; cycle 14
  EtBr fluorescence (Channel Cycling A.530/585hp): 7.571
E. coli AG100 [3]; cycle 15
  EtBr fluorescence (Channel Cycling A.530/585hp): 7.486
E. coli AG100 [3]; cycle 16
  EtBr fluorescence (Channel Cycling A.530/585hp): 7.363
E. coli AG100 [3]; cycle 17
  EtBr fluorescence (Channel Cycling A.530/585hp): 7.106
E. coli AG100 [3]; cycle 18
  EtBr fluorescence (Channel Cycling A.530/585hp): 6.949
E. coli AG100 [3]; cycle 19
  EtBr fluorescence (Channel Cycling A.530/585hp): 6.811
E. coli AG100 [3]; cycle 20
  EtBr fluorescence (Channel Cycling A.530/585hp): 6.647
E. coli AG100 [3]; cycle 21
  EtBr fluorescence (Channel Cycling A.530/585hp): 6.6451
E. coli AG100 [3]; cycle 22
  EtBr fluorescence (Channel Cycling A.530/585hp): 6.375
E. coli AG100 [3]; cycle 23
  EtBr fluorescence (Channel Cycling A.530/585hp): 6.294
E. coli AG100 [3]; cycle 24
  EtBr fluorescence (Channel Cycling A.530/585hp): 6.27
E. coli AG100 [3]; cycle 25
  EtBr fluorescence (Channel Cycling A.530/585hp): 6.171
E. coli AG100 [3]; cycle 26
  EtBr fluorescence (Channel Cycling A.530/585hp): 6.0708
E. coli AG100 [3]; cycle 27
  EtBr fluorescence (Channel Cycling A.530/585hp): 5.906
E. coli AG100 [3]; cycle 28
  EtBr fluorescence (Channel Cycling A.530/585hp): 5.869
E. coli AG100 [3]; cycle 29
  EtBr fluorescence (Channel Cycling A.530/585hp): 5.816
E. coli AG100 [3]; cycle 30
  EtBr fluorescence (Channel Cycling A.530/585hp): 5.711
E. coli AG100 [3]; cycle 31
  EtBr fluorescence (Channel Cycling A.530/585hp): 5.67
E. coli AG100 [3]; cycle 32
  EtBr fluorescence (Channel Cycling A.530/585hp): 5.576
E. coli AG100 [3]; cycle 33
  EtBr fluorescence (Channel Cycling A.530/585hp): 5.469
E. coli AG100 [3]; cycle 34
  EtBr fluorescence (Channel Cycling A.530/585hp): 5.4
E. coli AG100 [3]; cycle 35
  EtBr fluorescence (Channel Cycling A.530/585hp): 5.309
E. coli AG100 [3]; cycle 36
  EtBr fluorescence (Channel Cycling A.530/585hp): 5.284
E. coli AG100 [3]; cycle 37
  EtBr fluorescence (Channel Cycling A.530/585hp): 5.241
E. coli AG100 [3]; cycle 38
  EtBr fluorescence (Channel Cycling A.530/585hp): 5.208
E. coli AG100 [3]; cycle 39
  EtBr fluorescence (Channel Cycling A.530/585hp): 5.097
E. coli AG100 [3]; cycle 40
  EtBr fluorescence (Channel Cycling A.530/585hp): 5.016
E. coli AG100 [3]; cycle 41
  EtBr fluorescence (Channel Cycling A.530/585hp): 5.035
E. coli AG100 [3]; cycle 42
  EtBr fluorescence (Channel Cycling A.530/585hp): 4.981
E. coli AG100 [3]; cycle 43
  EtBr fluorescence (Channel Cycling A.530/585hp): 4.838
E. coli AG100 [3]; cycle 44
  EtBr fluorescence (Channel Cycling A.530/585hp): 4.747
E. coli AG100tet [4]; cycle 1
  EtBr fluorescence: 9.875
E. coli AG100tet [4]; cycle 2
  EtBr fluorescence: 10.6846
E. coli AG100tet [4]; cycle 3
  EtBr fluorescence: 11.6019
E. coli AG100tet [4]; cycle 4
  EtBr fluorescence: 12.4491
E. coli AG100tet [4]; cycle 5
  EtBr fluorescence: 13.6501
E. coli AG100tet [4]; cycle 6
  EtBr fluorescence: 14.6495
E. coli AG100tet [4]; cycle 7
  EtBr fluorescence: 15.6732
E. coli AG100tet [4]; cycle 8
  EtBr fluorescence: 16.6247
E. coli AG100tet [4]; cycle 9
  EtBr fluorescence: 17.8761
E. coli AG100tet [4]; cycle 10
  EtBr fluorescence: 18.9066
E. coli AG100tet [4]; cycle 11
  EtBr fluorescence: 20.4282
E. coli AG100tet [4]; cycle 12
  EtBr fluorescence: 21.7393
E. coli AG100tet [4]; cycle 13
  EtBr fluorescence: 23.4754
E. coli AG100tet [4]; cycle 14
  EtBr fluorescence: 25.1013
E. coli AG100tet [4]; cycle 15
  EtBr fluorescence: 27.2614
E. coli AG100tet [4]; cycle 16
  EtBr fluorescence: 29.2172
E. coli AG100tet [4]; cycle 17
  EtBr fluorescence: 32.322
E. coli AG100tet [4]; cycle 18
  EtBr fluorescence: 34.6681
E. coli AG100tet [4]; cycle 19
  EtBr fluorescence: 38.0364
E. coli AG100tet [4]; cycle 20
  EtBr fluorescence: 40.8691
E. coli AG100tet [4]; cycle 21
  EtBr fluorescence: 44.3636
E. coli AG100tet [4]; cycle 22
  EtBr fluorescence: 47.9426
E. coli AG100tet [4]; cycle 23
  EtBr fluorescence: 51.4641
E. coli AG100tet [4]; cycle 24
  EtBr fluorescence: 55.2307
E. coli AG100tet [4]; cycle 25
  EtBr fluorescence: 58.9315
E. coli AG100tet [4]; cycle 26
  EtBr fluorescence: 63.4348
E. coli AG100tet [4]; cycle 27
  EtBr fluorescence: 67.7728
E. coli AG100tet [4]; cycle 28
  EtBr fluorescence: 71.5821
E. coli AG100tet [4]; cycle 29
  EtBr fluorescence: 76.2698
E. coli AG100tet [4]; cycle 30
  EtBr fluorescence: 79.495
E. coli AG100 [5]; inhibitor 40 μM
  MIC of EtBr in presence of the efflux inhibitor: 200 µg/mL
  MIC of OFX in presence of the efflux inhibitor: 0.125 µg/mL
  MIC of OXA in presence of the efflux inhibitor: 512 µg/mL
  MIC of TET in presence of the efflux inhibitor: 1 µg/mL
E. coli AG100 [5]; inhibitor 80 μM
  MIC of EtBr in presence of the efflux inhibitor: 100 µg/mL
  MIC of OFX in presence of the efflux inhibitor: 0.125 µg/mL
  MIC of OXA in presence of the efflux inhibitor: 512 µg/mL
  MIC of TET in presence of the efflux inhibitor: 1 µg/mL
  reduction in EtBr MIC: 2 fold
E. coli AG100 [5]; inhibitor 160 μM
  MIC of EtBr in presence of the efflux inhibitor: 50 µg/mL
  MIC of OFX in presence of the efflux inhibitor: 0.125 µg/mL
  MIC of OXA in presence of the efflux inhibitor: 512 µg/mL
  MIC of TET in presence of the efflux inhibitor: 1 µg/mL
  reduction in EtBr MIC: 4 fold
E. coli AG100 [5]; inhibitor 40 to 160 µM
  effect on OXA MIC: no effect
  reduction in OFX MIC: 2 fold
  reduction in TET MIC: 2 fold
[6]; AG100A vs AG100
  MIC decrease against AG100A compared with wild-type parental strain: 8 fold
[6]; E. coli AG100A
  MIC: 32 μg/ml and 81.7 μM
E. coli AG100 [7]; 80 µM
  membrane depolarization: 83%
E. coli AG100 [7]; 160 μM (1/4 MIC)
  membrane depolarization: 85%
E. coli AG100 [7]; 320 μM (1/2 MIC)
  membrane depolarization: 89%
E. coli AG100 [7]; 640 μM (MIC)
  membrane depolarization: 91%
E. coli AG100A; AG100A, inhibitor 40 μM
  MIC of EtBr in presence of the efflux inhibitor: 0.39 µg/mL
  MIC of OFX in presence of the efflux inhibitor: 0.03 µg/mL
  MIC of OXA in presence of the efflux inhibitor: 1 µg/mL
  MIC of TET in presence of the efflux inhibitor: 0.25 µg/mL
  effect on the MIC of the antibiotics: no effect
  reduction in EtBr MIC: ≈ 8 fold
E. coli AG100A; concentrations above 40 µM
  growth of AG100A in presence of the inhibitor: did not grow
[8]
  MIC: >653.9 µM
